{"source": "patent US7655655B1", "about": "“Method for facilitating extinction training using D-cycloserine” (priority 2009, dated 2010)", "key": {"[1]": {"system": "Mycobacterium tuberculosis strains", "conditions": "typical Mycobacterium tuberculosis strains; cited from earlier work"}, "subjects with acrophobia": {"system": "subjects with acrophobia", "conditions": "DCS administered prior to virtual reality therapy sessions, versus placebo; cited from earlier work"}, "rats": {"system": "rats", "conditions": "cited from earlier work"}, "Sprague Dawley rats": {"system": "Sprague Dawley rats", "assay": "Extinction of fear-potentiated startle in rats with post-extinction training pre-sleep administration", "assay_type": "in vivo, rat", "conditions": "higher values signify greater extinction", "protocol": "Subjects. Twenty male, Sprague Dawley rats (300-350 grams) were used. Rats were placed in cages used to measure the acoustic startle reflex (Cassella, J. V., and Davis, M. “The design and calibration of a startle measurement system”, Physiology & Behavior (1986), 36, pp. 377-383) and, after a 5 minute acclimation period, presented with 50 startle stimuli (50-ms duration, 5-ms rise-decay time), 10 at each of five intensities (95, 100, 105, 110, and 115 dB) in a semi-random order at a 30-s interstimulus interval. The animals were subsequently divided into four groups of five rats, each having similar mean startle amplitudes across the 10 stimuli at the five intensities.\nFear conditioning and testing. On two consecutive training days, animals were placed in the startle chambers and after a 5-min acclimation period, presented with 10 light shock pairings. The shock was presented during the last 500 ms of the 3,700-ms light at an average intertrial interval of 3 minutes (range, 2-4 min). No further shocks were presented thereafter. Twenty-four hours after the second training day, rats were placed in the startle chamber and presented with 30 95-dB startle stimuli (leaders), followed by the first of 10 startle stimuli presented 3.2 seconds after onset of the light that had previously been paired with a shock, and 10 more startle stimuli alone. The two trial types (light-startle and startle-alone) were presented in an irregular balanced order at a 30-s interstimulus interval. Based on the mean difference in startle amplitude between the mean startle amplitude across the last 10 leaders and the mean startle amplitude across the light-startle trials, a percent fear-potentiated startle was computed as: [(mean difference in startle amplitude between the light-startle and leaders)/mean leaders]×100. The rats were divided into four groups.\nExtinction training with or without sleep deprivation. […] Although sleep was not measured directly, the rats were observed on closed-circuit TV and appeared to sleep (rats tend to sleep in the day, when the lights are on). […]"}, "[2]": {"system": "subjects chronically ill with tuberculosis", "conditions": "chronic dosing schedules, typical tuberculosis doses 500-1000 mg/day; cited from earlier work"}, "[3]": {"conditions": "cited from earlier work"}}, "note": "Where two headings read alike, the source gives them in different places.", "data": [{"compound": "N[C@@H]1CON=C1O", "note": "[DCS, D-cycloserine]", "values": [{"measurement": "minimum inhibitory concentrations (MIC) in vitro", "setting": "[1]", "result": "6 to 25", "unit": "µg/mL"}, {"measurement": "number of therapy sessions required to reach a defined clinical endpoint", "setting": "subjects with acrophobia", "result": "significant reduction"}, {"measurement": "effect on extinction learning", "setting": "rats; DCS injected after extinction training", "result": "facilitated extinction learning"}, {"measurement": "effect on extinction learning", "setting": "rats; delay between extinction training and administration of DCS increased to four hours", "result": "no significant facilitatory effect"}, {"measurement": "mean change in percent fear-potentiated startle prior to and after extinction training", "setting": "Sprague Dawley rats; DCS-DCS group: 15 mg/kg DCS i.p. 15 min before extinction training and again pre-sleep 4 h after training, n=3", "result": 176, "unit": "%"}, {"measurement": "mean change in percent fear-potentiated startle prior to and after extinction training", "setting": "Sprague Dawley rats; DCS-Sal group: 15 mg/kg DCS i.p. 15 min before extinction training, saline pre-sleep 4 h after training, n=3", "result": 78, "unit": "%"}, {"measurement": "mean change in percent fear-potentiated startle prior to and after extinction training", "setting": "Sprague Dawley rats; Sal-DCS group: saline i.p. 15 min before extinction training, 15 mg/kg DCS i.p. pre-sleep 4 h after training, n=4", "result": 164, "unit": "%"}, {"measurement": "recorded side effects", "setting": "[2]", "result": "drowsiness, depression, headache, confusion, tremor, vertigo, and memory difficulties, paresthesias, and seizure"}, {"measurement": "peak serum concentrations", "setting": "[3]; child subject, sub-antimicrobial dose less than or equal to 2 mg/kg", "result": "less than or equal to 5 μg/mL"}, {"measurement": "serum concentrations generally maintained", "setting": "[3]; dose of 500 mg/day, chronic treatment of tuberculosis", "result": "25 to 30", "unit": "µg/mL"}, {"measurement": "time of peak serum concentrations after dosing", "setting": "[3]; known oral capsules", "result": "3 to 8", "unit": "h"}, {"measurement": "peak serum concentrations", "setting": "[3]; sub-antimicrobial dose, less than or equal to 2 mg/kg, substantial variability between subjects", "result": "less than or equal to 5 μg/mL"}]}]}
